Test results from patent US5736555A, “Heterocyclic compounds and their use as angiotensin antagonists” (Takeda Chemical Industries, Ltd., priority 1991, dated 1998).

How the values were obtained:
[1] = target: T1, angiotensin II (A-II) receptor (Bos taurus, UniProt P25104); experiment: Inhibitory Effect of Binding of Angiotensin-II to Angiotensin Receptor (radioreceptor assay, 125I-AII, adrenal cortex membrane fraction); settings: bovine adrenal cortex membrane, room temperature, one hour
T1 construct: An A-II receptor membrane fraction was prepared from bovine adrenal cortex; from tissue; host or cells: bovine adrenal cortex membrane fraction
T1 sequence (P25104 1-359): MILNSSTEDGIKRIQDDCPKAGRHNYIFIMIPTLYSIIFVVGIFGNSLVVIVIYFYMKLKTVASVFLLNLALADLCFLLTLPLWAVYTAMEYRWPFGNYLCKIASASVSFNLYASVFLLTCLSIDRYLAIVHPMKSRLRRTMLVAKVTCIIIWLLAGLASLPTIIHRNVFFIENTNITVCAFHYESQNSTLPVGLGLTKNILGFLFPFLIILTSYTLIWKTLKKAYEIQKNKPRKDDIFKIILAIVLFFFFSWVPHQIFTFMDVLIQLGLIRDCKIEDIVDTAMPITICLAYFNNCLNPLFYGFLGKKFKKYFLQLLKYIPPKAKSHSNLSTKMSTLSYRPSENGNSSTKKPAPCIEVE
Description: Inhibitory Effect of Binding of Angiotensin-II to Angiotensin Receptor
An A-II receptor membrane fraction was prepared from bovine adrenal cortex.

[2] = test system: A-II-induced pressor action; experiment: Inhibitory Effect of the Compound of the Present Invention on Pressor Action of AII (p.o.); format: in vivo, rat (Jcl: SD); settings: rat, AII 100 ng/kg i.v.; for inhibition in vivo at 1 mg/kg / inhibition in vivo at 3 mg/kg: po, read-out: Pressor Response to A II (p.o.), percent inhibition class; for inhibition in vivo at 3 mg/kg: 3 mg/kg p.o.
Description: Inhibitory Effect of the Compound of the Present Invention on Pressor Action of AII
Jcl: SD rat (9 week old, male) were employed. On the day prior to the experiment, these animals were applied with cannulation into the femoral artery and vein under anesthesia with pentobarbital Na. These animals were fasted but allowed to free access to drinking water until the experiment was started. Just on the day of conducting the experiment, the artery cannula was connected with a blood-pressure transducer, and the average blood pressure was recorded by means of polygraph. Before administration of the drug, the pressor action due to intravenous administration of AII (100 ng/kg) as the control was determined. The drugs were orally administered, then, at each point of the determination, A-II was administered intravenously, and the pressor action was similarly determined. By comparing the pressor action before and after administration of the drug, the percent inhibition by the drug on A-II-induced pressor action was evaluated.

[3] = reported in literature; cited from earlier work

Molecule | inhibition at 1 µM ([1]; 10^-6 M) [%] | inhibition at 0.1 µM ([1]; 10^-7 M) [%] | inhibition in vivo at 1 mg/kg ([2]; 1 mg/kg p.o.) [%] | inhibition in vivo at 3 mg/kg [2] [%] | angiotensin II antagonist activity [3] | Radioreceptor assay % inhibition ([1]; 10^-6 M) [%] | Radioreceptor assay % inhibition ([1]; 10^-7 M) [%] | Pressor Response to A II (p.o.), percent inhibition class ([2]; 1 mg/kg p.o.)
CCOc1nc2cccc(C(=O)O)c2n1Cc1ccc(-c2ccccc2-c2nc(=O)o[nH]2)cc1 [Example 1, 2-Ethoxy-1-[[2'-(2,5-dihydro-5-oxo-1,2,4-oxadiazol-3-yl)biphenyl-4-yl]methyl]benzimidazole-7-carboxylic Acid] | 79 | 34 | > 70 | > 70 | – | – | – | –
CCOc1nc2cccc(C(=O)OC)c2n1Cc1ccc(-c2ccccc2C2=NOS(=O)N2)cc1 (centres unmarked) [Example 3, Methyl 2-ethoxy-1-[[2'-(2-oxo-3H-1,2,3,5-oxathiadiazol-4-yl)biphenyl]methyl]benzimidazole-7-carboxylate] | 75 | 33 | – | > 70 | – | – | – | –
CCOc1nc2cccc(C(=O)OC(C)OC(=O)OC3CCCCC3)c2n1Cc1ccc(-c2ccccc2-c2nc(=O)o[nH]2)cc1 (centres unmarked) [Example 4, 1-(Cyclohexyloxycarbonyloxy)ethyl 2-ethoxy-1-[[2'-(2,5-dihydro-5-oxo-1,2,4-oxadiazol-3-yl)biphenyl-4-yl]methyl]benzimidazole-7-carboxylate] | 44 | 17 | > 70 | – | – | – | – | –
CCSc1nc2c(C)sc(C(=O)O)c2n1Cc1ccc(-c2ccccc2-c2noc(=O)[nH]2)cc1 [Example 8, 2-Ethylthio-1-[[2'-(2,5-dihydro-5-oxo-1,2,4-oxadiazol-3-yl)biphenyl-4-yl]methyl]-4-methylthieno[3,4-d]imidazole-6-carboxylic Acid] | 40 | 8 | > 70 | – | – | – | – | –
COc1nc2c(C)sc(C(=O)O)c2n1Cc1ccc(-c2ccccc2-c2nc(=O)o[nH]2)cc1 [Example 9, 2-Methoxy-1-[[2'-(2,5-dihydro-5-oxo-1,2,4-oxadiazol-3-yl)biphenyl-4-yl]methyl]-4-methylthieno[3,4-d]imidazole-6-carboxylic Acid] | 55 | 19 | > 70 | > 70 | – | – | – | –
CCOc1nc2c(C)sc(C(=O)O)c2n1Cc1ccc(-c2ccccc2-c2nc(=O)o[nH]2)cc1 [Example 10, 2-Ethoxy-1-[[2'-(2,5-dihydro-5-oxo-1,2,4-oxadiazol-3-yl)biphenyl-4-yl]methyl]-4-methylthieno[3,4-d]imidazole-6-carboxylic Acid] | 51 | 17 | > 70 | – | – | – | – | –
CCCOc1nc2c(C)sc(C(=O)O)c2n1Cc1ccc(-c2ccccc2-c2nc(=O)o[nH]2)cc1 [Example 11, 1-[2'-(2,5-Dihydro-5-oxo-1,2,4-oxadiazol-3-yl)biphenyl-4-yl]methyl-4-methyl-2-n-propoxythieno[3,4-d]imidazole-6-carboxylic Acid] | 41 | – | > 70 | – | – | – | – | –
CCNc1nc2c(C)sc(C(=O)O)c2n1Cc1ccc(-c2ccccc2-c2nc(=O)o[nH]2)cc1 [Example 12, 2-Ethylamino-1-[[2'-(2,5-dihydro-5-oxo-1,2,4-oxadiazol-3-yl)biphenyl-4-yl]methyl]-4-methylthieno[3,4-d]imidazole-6-carboxylic Acid] | 78 | 46 | < 50 | – | – | – | – | –
CCCc1nc2cccc(C(=O)O)c2n1Cc1ccc(-c2ccccc2-c2nc(=O)o[nH]2)cc1 [Example 30, 1-[[2'-(2,5-Dihydro-5-oxo-1,2,4-oxadiazol-3-yl)biphenyl-4-yl]methyl]-2-propylbenzimidazole-7-carboxylic Acid] | 77 | 35 | > 70 | – | – | – | – | –
CCc1nc2cccc(C(=O)O)c2n1Cc1ccc(-c2ccccc2-c2nc(=O)o[nH]2)cc1 [Example 31, 2-Ethyl-1-[[2'-(2,5-dihydro-5-oxo-1,2,4-oxadiazol-3-yl)-biphenyl-4-yl]methyl]benzimidazole-7-carboxylic Acid] | 79 | 41 | > 70 | – | – | – | – | –
CNCC(=O)N[C@@H](CCCN=C(N)N)C(=O)N[C@H](C(=O)N[C@@H](Cc1ccc(O)cc1)C(=O)N[C@H](C(=O)N[C@@H](Cc1cnc[nH]1)C(=O)N1CCC[C@H]1C(=O)N[C@@H](C)C(=O)O)C(C)C)C(C)C [saralasin] | – | – | – | – | potent | – | – | –
Acetoxymethyl 1-[[2'-(4-acetoxymethyl-4,5-dihdyro-5-oxo-4H-1,2,4-oxadiazol-3-yl)biphenyl-4-yl]methyl]-2-ethoxybenzimidazole-7-carboxylate [Example 13] | – | – | – | – | – | 69 | 31 | +++ (+++ ≥ 70%)

Second part, led by results:

inhibition at 1 µM ([1]; 10^-6 M) [%] | inhibition at 0.1 µM ([1]; 10^-7 M) [%] | Molecule | inhibition in vivo at 1 mg/kg ([2]; 1 mg/kg p.o.) [%] | inhibition in vivo at 3 mg/kg [2] [%] | angiotensin II antagonist activity [3] | Radioreceptor assay % inhibition ([1]; 10^-6 M) [%] | Radioreceptor assay % inhibition ([1]; 10^-7 M) [%] | Pressor Response to A II (p.o.), percent inhibition class ([2]; 1 mg/kg p.o.)
75 | 27 | O=C(O)c1cccc2nc(C3CC3)n(Cc3ccc(-c4ccccc4-c4noc(=O)[nH]4)cc3)c12 [Example 32, 2-Cyclopropyl-1-[[2'-(2,5-dihydro-5-oxo-1,2,4-oxadiazol-3-yl)biphenyl-4-yl]methyl]benzimidazole-7-carboxylic acid] | > 70 | – | – | – | – | –
79 | 40 | COC(=O)c1cccc2nc(C3CC3)n(Cc3ccc(-c4ccccc4-c4nc(=O)o[nH]4)cc3)c12 [Example 32c, Methyl 2-cyclopropyl-1-[[2'-(2,5-dihydro-5-oxo-1,2,4-oxadiazol-3-yl)biphenyl-4-yl]methyl]-benzimidazole-7-carboxylate] | > 70 | – | – | – | – | –
70 | 23 | CCCCc1nc2cccc(C(=O)O)c2n1Cc1ccc(-c2ccccc2-c2noc(=O)[nH]2)cc1 [Example 33, 2-Butyl-1-[[2'-(2,5-dihydro-5-oxo-1,2,4-oxadiazol-3-yl)-biphenyl-4-yl]methyl]benzimidazole-7-carboxylic acid] | 50 to 70 | – | – | – | – | –
79 | 38 | COc1nc2cccc(C(=O)O)c2n1Cc1ccc(-c2ccccc2-c2noc(=O)[nH]2)cc1 [Example 35, 1-[[2'-(2,5-Dihydro-5-oxo-1,2,4-oxadiazol-3-yl)biphenyl-4-yl]methyl]-2-methoxybenzimidazole-7-carboxylic acid] | > 70 | – | – | – | – | –
60 | 18 | CCCOc1nc2cccc(C(=O)O)c2n1Cc1ccc(-c2ccccc2-c2nc(=O)o[nH]2)cc1 [Example 36, 1-[[2'-(2,5-Dihydro-5-oxo-1,2,4-oxadiazol-3-yl)biphenyl-4-yl]methyl]-2-propoxybenzimidazole-7-carboxylic acid] | > 70 | – | – | – | – | –
94 | 80 | CCc1nc2c(C)cc(C(=O)O)nc2n1Cc1ccc(-c2ccccc2-c2nc(=O)o[nH]2)cc1 [Example 56, 2-Ethyl-3-[[2'-(2,5-dihydro-5-oxo-1,2,4-oxadiazol-3-yl)biphenyl-4-yl]methyl]-7-methylimidazo[4,5-b]pyridine-5-carboxylic acid] | > 70 | – | – | – | – | –
84 | 43 | CCOc1nc2cccc(C(=O)OC)c2n1Cc1ccc(-c2ccccc2-c2nc(=O)s[nH]2)cc1 [Example 60, Methyl 2-ethoxy-1-[[2'-(2,5-dihydro-5-oxo-1,2,4-thiadiazol-3-yl)biphenyl-4-yl]methyl]benzimidazole-7-carboxylate] | > 70 | – | – | – | – | –
